In publication PMC9655428, “N-Hydroxy-N-Propargylamide Derivatives of Ferulic Acid: Inhibitors of Cholinesterases and Monoamine Oxidases” (Molecules, 2022):
“Also recorded” adds a separate entry of the source.

Tests used:
hBChE = target: T1, hBChE (Homo sapiens, UniProt P06276); assay: Inhibition of hBChE (Ellman spectrophotometric assay); format: biochemical; details: ni = no inhibition; for hBChE % @ 10 µM: inhibition at 10 µM
T1 construct: purchased Sigma Aldrich
Method: (§1) Inhibition assays were performed according to previously published protocols. […] Compound 3 is a hydroxamate in which the piperidine ring is attached to the C4 oxygen via an n-butyl linker, while compound 6 is a corresponding N-propargylhydroxamate.
(§2) Inhibition assays were performed according to previously published protocols. […] Briefly, the classical Ellman spectrophotometric assay (for ChEs) and fluorimetric detection of 4-hydroxyquinoline (for MAOs) were adapted to a plate reading procedure using 96-well microtiter plates (Greiner Bio-Frickenhausen, Frickenhausen, Germany). Readings were performed using the Infinite M1000 Pro plate reader (Tecan, Cernusco s.N., Cernusco sul Naviglio, MI, Italy), and statistical regression was performed using Prism software (GraphPad Prism version 5.00 for Windows, GraphPad Software, San Diego, CA, USA).

hMAO-A = target: T2, hMAO-A (Homo sapiens, UniProt P21397); assay: Inhibition of hMAO-A (fluorimetric detection of 4-hydroxyquinoline); format: biochemical; details: ni = no inhibition
T2 construct: purchased Sigma Aldrich
T2 sequence (P21397 1-527): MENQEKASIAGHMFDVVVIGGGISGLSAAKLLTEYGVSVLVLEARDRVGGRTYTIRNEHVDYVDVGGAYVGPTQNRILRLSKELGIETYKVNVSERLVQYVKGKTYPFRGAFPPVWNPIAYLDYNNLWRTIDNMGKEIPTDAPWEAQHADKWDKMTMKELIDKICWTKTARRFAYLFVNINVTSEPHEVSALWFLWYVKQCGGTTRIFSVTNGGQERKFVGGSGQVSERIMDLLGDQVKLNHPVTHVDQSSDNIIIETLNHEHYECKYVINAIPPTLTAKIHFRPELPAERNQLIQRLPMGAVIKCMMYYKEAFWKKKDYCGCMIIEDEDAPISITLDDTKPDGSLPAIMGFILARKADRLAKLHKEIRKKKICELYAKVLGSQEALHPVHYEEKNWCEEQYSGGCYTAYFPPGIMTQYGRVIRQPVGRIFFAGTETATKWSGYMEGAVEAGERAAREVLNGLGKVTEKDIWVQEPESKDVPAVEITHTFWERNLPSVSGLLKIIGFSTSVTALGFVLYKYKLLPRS
Method: as §1, §2

hAChE = target: T3, hAChE (Homo sapiens, UniProt P22303); assay: Inhibition of hAChE (Ellman spectrophotometric assay); format: biochemical; details: for hAChE % @ 10 µM: inhibition at 10 µM; for IC50: seven concentrations 30–0.01 µM
T3 construct: purchased Sigma Aldrich
Method: as §1, §2

hMAO-B = target: T4, hMAO-B (Homo sapiens, UniProt P27338); assay: Inhibition of hMAO-B (fluorimetric detection of 4-hydroxyquinoline); format: biochemical; details: ni = no inhibition
T4 construct: purchased Sigma Aldrich
T4 sequence (P27338 1-520): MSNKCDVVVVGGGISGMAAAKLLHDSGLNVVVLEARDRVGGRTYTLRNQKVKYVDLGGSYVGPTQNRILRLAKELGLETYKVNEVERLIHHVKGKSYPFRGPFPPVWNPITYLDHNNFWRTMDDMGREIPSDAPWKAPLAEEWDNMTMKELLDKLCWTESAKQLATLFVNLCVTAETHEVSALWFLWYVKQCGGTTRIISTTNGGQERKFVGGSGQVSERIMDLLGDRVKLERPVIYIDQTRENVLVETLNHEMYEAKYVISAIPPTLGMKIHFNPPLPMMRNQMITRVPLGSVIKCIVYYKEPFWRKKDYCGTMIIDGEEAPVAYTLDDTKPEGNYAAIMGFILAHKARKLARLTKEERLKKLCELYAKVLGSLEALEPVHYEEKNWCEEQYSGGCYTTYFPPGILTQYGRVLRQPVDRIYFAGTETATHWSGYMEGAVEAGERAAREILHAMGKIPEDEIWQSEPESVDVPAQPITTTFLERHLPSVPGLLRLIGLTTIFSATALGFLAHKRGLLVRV
Method: as §1, §2

[1] = Metal chelation, UV-Vis absorption assay, Ca2+; format: physicochemical; details: 30 µM compound, equimolar CaCl2, 30 min, pH 7.4
Method: (§3) Another therapeutic possibility currently under investigation is metal chelation, which could affect not only the redox cycling of metal ions but also Aβ- and tau-pathology. Metal chelation of compound 4 was investigated using a UV-Vis absorption assay, in which the compound was incubated with equimolar concentrations of the major bivalent biometals (i.e., Ca^2+, Mg^2+, Zn^2+, Cu^2+, Fe^2+, Mn^2+, Co^2+, and Ni^2+) (Figure 4).
(§4) Metal chelation was determined in assay buffer (20 mM Na-HEPES, 150 mM NaCl, pH 7.4) according to the procedure described previously. Stock solutions of the metals at 100 mM concentrations were prepared in MilliQ water (Milli-Q advantage A10 Ultrapure Water Purification System, Millipore, KGaA, Darmstadt, Germany). The FeCl2 stock solution (100 mM) was prepared in the presence of ascorbic acid (1 mM). Compound 4 at a concentration of 30 μM was incubated for 30 min with equimolar concentrations of CuCl2, ZnCl2, MgCl2, CaCl2, MnCl2, FeCl2, CoCl2, and NiCl2. Absorbance spectra were measured on a Synergy™ H4 reader (BioTek Instruments, Inc., Winooski, VT, USA).

[2] = Metal chelation, UV-Vis absorption assay, Fe2+; format: physicochemical; details: 30 µM compound, equimolar FeCl2, 30 min, pH 7.4
Method: as §3, §4

[3] = DPPH radical-scavenging assay; details: DPPH 70 µM in MeOH, 1.5 h incubation
Description: In addition, antioxidants or natural products containing polyphenols are also being investigated in clinical trials involving AD patients. Therefore, the antioxidant properties of compound 4 were investigated using the 2,2-diphenyl-1-picrylhydrazyl radical (DPPH) scavenging assay, a simple and reliable in vitro assay. […] Hydroxamic acids are considered to be potent antioxidants, and, in combination with cholinesterase inhibitory activity, could not only alleviate symptoms but also have disease-modifying effects.
Compound 4 at concentrations of 3.125–50 µM was incubated for 1.5 h with 2,2-diphenyl-1-picrylhydrazyl radical (DPPH, 70 µM) in MeOH, and absorbance was measured (λ = 517 nm) using a Synergy™ H4 reader (BioTek Instruments, Inc., Winooski, VT, USA). The experiment was performed in three technical replicates, and the blank sample (compound 4 without DPPH) was subtracted. The results are expressed as the percentage of DPPH free radicals (DPPH free radicals (%) = ((A0 − A1)/A0) × 100, where A0 is the absorbance of DPPH in MeOH and A1 is the absorbance of DPPH in the presence of compound 4).

[4] = Metal chelation, UV-Vis absorption assay, Cu2+; format: physicochemical; details: 30 µM compound, equimolar CuCl2, 30 min, pH 7.4
Method: as §3, §4

T1 sequence (P06276 29-602): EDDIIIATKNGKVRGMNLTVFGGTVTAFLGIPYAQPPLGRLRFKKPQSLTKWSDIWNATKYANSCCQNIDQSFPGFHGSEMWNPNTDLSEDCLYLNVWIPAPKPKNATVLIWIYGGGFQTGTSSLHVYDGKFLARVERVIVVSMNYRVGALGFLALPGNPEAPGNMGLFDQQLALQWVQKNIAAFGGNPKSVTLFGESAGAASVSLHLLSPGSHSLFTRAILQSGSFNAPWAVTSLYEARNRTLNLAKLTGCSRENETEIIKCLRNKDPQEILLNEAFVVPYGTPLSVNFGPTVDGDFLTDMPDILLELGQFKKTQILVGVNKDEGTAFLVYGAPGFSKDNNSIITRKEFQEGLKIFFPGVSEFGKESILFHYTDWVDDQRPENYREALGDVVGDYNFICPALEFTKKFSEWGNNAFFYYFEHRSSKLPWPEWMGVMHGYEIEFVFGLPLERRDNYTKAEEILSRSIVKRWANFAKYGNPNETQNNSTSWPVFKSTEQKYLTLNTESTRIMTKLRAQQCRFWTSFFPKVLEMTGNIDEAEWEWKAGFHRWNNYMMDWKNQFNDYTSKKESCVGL
T3 sequence (P22303 32-614): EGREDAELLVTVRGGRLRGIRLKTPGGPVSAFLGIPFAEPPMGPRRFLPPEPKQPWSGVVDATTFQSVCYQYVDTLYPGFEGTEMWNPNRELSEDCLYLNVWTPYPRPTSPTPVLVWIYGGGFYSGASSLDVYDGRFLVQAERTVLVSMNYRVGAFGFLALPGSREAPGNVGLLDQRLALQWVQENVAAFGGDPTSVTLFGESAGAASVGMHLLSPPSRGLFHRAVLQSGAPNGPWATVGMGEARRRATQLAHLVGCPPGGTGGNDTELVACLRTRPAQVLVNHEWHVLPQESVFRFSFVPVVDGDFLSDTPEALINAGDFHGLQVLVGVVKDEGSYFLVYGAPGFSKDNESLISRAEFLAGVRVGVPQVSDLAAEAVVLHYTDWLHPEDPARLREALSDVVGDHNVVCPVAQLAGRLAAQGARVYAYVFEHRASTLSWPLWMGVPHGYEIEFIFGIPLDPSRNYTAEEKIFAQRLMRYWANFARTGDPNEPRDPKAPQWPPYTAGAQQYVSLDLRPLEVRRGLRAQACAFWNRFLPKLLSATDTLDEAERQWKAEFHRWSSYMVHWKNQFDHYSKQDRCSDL

| Compound | inhibition at 10 µM (hMAO-A) | hAChE % @ 10 µM (hAChE) | inhibition at 10 µM (hMAO-B) | hBChE % @ 10 µM (hBChE) | IC50 (hAChE) | other results |
| --- | --- | --- | --- | --- | --- | --- |
| COc1cc(/C=C/C(=O)NO)ccc1OCCN1CCCCC1 [Compound 1, (E)-N-Hydroxy-3-(3-methoxy-4-(2-(piperidin-1-yl)ethoxy)phenyl)acrylamide] | 20 ± 5% | 51 ± 2% | 26 ± 5% | – | – | inhibition at 10 µM (hBChE): 18 ± 4% |
| COc1cc(/C=C/C(=O)NO)ccc1OCCCN1CCCCC1 [Compound 2, (E)-N-Hydroxy-3-(3-methoxy-4-(3-(piperidin-1-yl)propoxy)phenyl)acrylamide] | 15 ± 5% | 42 ± 2% | 21 ± 4% | ni | – | – |
| COc1cc(/C=C/C(=O)NO)ccc1OCCCCN1CCCCC1 [Compound 3, (E)-N-Hydroxy-3-(3-methoxy-4-(4-(piperidin-1-yl)butoxy)phenyl)acrylamide] | 5 ± 3% | – | 11 ± 4% | ni | 6.58 ± 0.27 µM | – |
| C#CCN(O)C(=O)/C=C/c1ccc(OCCN2CCCCC2)c(OC)c1 [Compound 4, (E)-N-Hydroxy-3-(3-methoxy-4-(2-(piperidin-1-yl)ethoxy)phenyl)-N-(prop-2-yn-1-yl)acrylamide] | 26 ± 5% | – | 20 ± 4% | – | 2.63 ± 0.57 µM | inhibition at 10 µM (hBChE): 38 ± 2%; Ca^2+ chelation (spectral change) [1]: does not appear to be due to the formation of a Ca^2+/4 complex; Fe^2+ chelation (spectral change) [2]: ferrous ions were also bound; EC50 [3]: 40.9 ± 0.5 µM; Cu^2+ chelation (spectral change) [4]: efficiently bound Cu^2+ ions; also recorded: chelated divalent copper ions |
| C#CCN(O)C(=O)/C=C/c1ccc(OCCCN2CCCCC2)c(OC)c1 [Compound 5, (E)-N-Hydroxy-3-(3-methoxy-4-(3-(piperidin-1-yl)propoxy)phenyl)-N-(prop-2-yn-1-yl)acrylamide] | 23 ± 6% | 41 ± 4% | 16 ± 5% | ni | – | – |
| C#CCN(O)C(=O)/C=C/c1ccc(OCCCCN2CCCCC2)c(OC)c1 [Compound 6, (E)-N-Hydroxy-3-(3-methoxy-4-(4-(piperidin-1-yl)butoxy)phenyl)-N-(prop-2-yn-1-yl)acrylamide] | – | – | – | ni | 7.2 ± 0.54 µM | hMAO-A % @ 10 µM (hMAO-A; inhibition at 10 µM): ni; hMAO-B % @ 10 µM (hMAO-B; inhibition at 10 µM): ni |
| O=C(NO)c1ccccc1 [Compound 15, N-Hydroxybenzamide] | 11 ± 3% | 58 ± 5% | 16 ± 3% | ni | – | – |
| C#CCN(O)C(=O)c1ccccc1 [Compound 16, N-Hydroxy-N-(prop-2-yn-1-yl)benzamide] | 14 ± 4% | 40 ± 4% | 16 ± 5% | ni | – | – |
| Cc1c(C)c2c(c(C)c1O)CCC(C)(C(=O)O)O2 (stereo not shown) [Trolox, reference compound] | – | – | – | – | – | EC50 [3]: 12.4 ± 0.3 µM |
